Measurements as given in ChEMBL document CHEMBL1145461 (J Med Chem, 2007).

Legend:
[1] = molecular target: T1, Steroid 17-alpha-hydroxylase/17,20 lyase (Homo sapiens, UniProt P05093); assay: (§1) Inhibition of human CYP17 expressed in Escherichia coli at 2.5 uM; conditions: 2.5 µM
T1 sequence (P05093 whole entry): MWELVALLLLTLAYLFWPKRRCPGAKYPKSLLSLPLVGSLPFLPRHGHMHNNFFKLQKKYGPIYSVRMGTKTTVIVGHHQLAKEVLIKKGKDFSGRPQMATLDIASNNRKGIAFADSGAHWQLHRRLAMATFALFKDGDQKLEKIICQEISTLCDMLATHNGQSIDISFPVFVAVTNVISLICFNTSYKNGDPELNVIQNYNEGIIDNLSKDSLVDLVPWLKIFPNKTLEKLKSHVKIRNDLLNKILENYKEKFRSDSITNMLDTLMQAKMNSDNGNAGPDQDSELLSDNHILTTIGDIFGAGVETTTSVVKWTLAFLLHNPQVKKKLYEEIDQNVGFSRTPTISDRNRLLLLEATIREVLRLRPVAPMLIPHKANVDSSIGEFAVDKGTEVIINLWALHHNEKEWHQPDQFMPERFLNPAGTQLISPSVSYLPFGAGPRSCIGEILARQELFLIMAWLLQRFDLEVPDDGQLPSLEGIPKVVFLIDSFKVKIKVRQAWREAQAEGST

[2] = molecular target: T2, CYP17 (steroid 17-alpha-hydroxylase/17,20 lyase) (Homo sapiens, UniProt P05093); assay: as §1; conditions: recombinant human CYP17 expressed in Escherichia coli
T2 sequence (P05093 whole entry): T1 sequence (P05093 whole entry)

Aromatase = molecular target: T3, Aromatase (Homo sapiens, UniProt P11511); assay: Inhibition of CYP19 in human placental microsomes; design: species or system Placenta
T3 sequence (P11511 whole entry): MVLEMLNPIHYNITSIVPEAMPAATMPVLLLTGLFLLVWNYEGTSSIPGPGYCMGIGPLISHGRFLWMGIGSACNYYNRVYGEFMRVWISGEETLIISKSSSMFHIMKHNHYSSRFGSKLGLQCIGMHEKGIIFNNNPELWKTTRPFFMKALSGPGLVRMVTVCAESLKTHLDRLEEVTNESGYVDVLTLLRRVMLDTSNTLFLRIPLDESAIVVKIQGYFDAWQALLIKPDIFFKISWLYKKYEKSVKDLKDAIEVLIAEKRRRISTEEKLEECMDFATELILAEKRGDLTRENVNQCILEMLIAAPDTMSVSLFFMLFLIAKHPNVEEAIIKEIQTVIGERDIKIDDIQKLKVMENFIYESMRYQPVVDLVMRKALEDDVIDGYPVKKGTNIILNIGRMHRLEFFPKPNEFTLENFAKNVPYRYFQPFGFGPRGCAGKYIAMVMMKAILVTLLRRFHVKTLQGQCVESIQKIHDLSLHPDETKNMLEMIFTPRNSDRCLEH

SMILES | Inhibition [1] | inhibition at 2.5 µM [2] [%] | IC50 (Aromatase) [nM]
O=C(c1ccccc1)c1ccc(Cn2ccnc2)cc1 | Not Active |  | 
O=C(c1ccccc1)c1cc(Br)ccc1Cn1ccnc1 |  | 15 | 400
O=C(c1ccccc1)c1cc([N+](=O)[O-])ccc1Cn1ccnc1 | Not Active |  | 25.9
O=C(c1ccc(-c2ccccc2)cc1)c1cc([N+](=O)[O-])ccc1Cn1ccnc1 |  | 17 | 17.7
O=C(c1ccc(-c2ccccc2)cc1)c1ccccc1Cn1ccnc1 |  | 24 | 260
O=C(c1ccc(-c2ccccc2)cc1)c1cccc(Cn2ccnc2)c1 | Not Active |  | 5.3
O=C(c1ccccc1)c1ccccc1Cn1ccnc1 | Not Active |  | 560
O=C(c1ccccc1)c1cc(Cn2ccnc2)ccc1[N+](=O)[O-] | Not Active |  | 31
O=C(c1ccccc1)c1cccc(Cn2ccnc2)c1 | Not Active |  | 7.3
N#Cc1ccc(C2CCCc3cncn32)cc1 (stereo not drawn) [FADROZOLE] | Not Active |  | 
